According to patent US20260226068A1, “IMIDAZOTRIAZINE IL-17A MODULATORS AND USES THEREOF” (DICE ALPHA, INC., priority 2023, published 2026):

Assays:
IL-17A/F = target: T1, IL-17A/F (Homo sapiens, UniProt Q16552+Q96PD4); test: IL-17A/F HEK-Blue cell assay (SEAP reporter); assay type: cell-based; settings: HEK-Blue IL-17A reporter cells, IL17A/F 5 ng/mL, 20 hours, SEAP read at A630; read-out: HEK-Blue IL17AF (IC50 for IL-17A/F inhibition)
T1 construct: purchased R&D Systems
T1 sequence (Q16552 24-155): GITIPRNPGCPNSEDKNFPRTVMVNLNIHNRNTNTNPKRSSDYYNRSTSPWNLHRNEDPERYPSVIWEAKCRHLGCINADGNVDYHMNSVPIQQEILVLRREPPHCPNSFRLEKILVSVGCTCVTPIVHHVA
T1 sequence (Q96PD4 31-163): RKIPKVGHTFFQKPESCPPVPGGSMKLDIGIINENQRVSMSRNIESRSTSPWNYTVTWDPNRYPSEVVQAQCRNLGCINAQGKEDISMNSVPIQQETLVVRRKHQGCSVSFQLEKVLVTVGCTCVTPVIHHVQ
Method: (§1) The HEK-Blue IL-17A reporter cell line (Fisher #NC 1408637) was used for cell-based IL-17A/A inhibition assays. Cells were grown and prepared for assays according to the manufacturer's instructions. This cell line consists of HEK 293 cells that were designed to expressed IL-17RA, IL-17RC, and the Act1 adapter molecule, the combination of which, when stimulated by IL-17A/A or IL17A/F activates a […] promoter and drives expression of the recombinant Secreted Alkaline Phosphatase (SEAP) gene. Media from the cells is then added to a development reagent (Quanti-Blue Substrate, Fisher #NC971 1613), and read at A630.
(§2) Compounds were dispensed in DMSO to an empty clear 384-well tissue culture plate in a titration ranging from 10 μM to 27 pM, with DMSO added to every well to a final concentration of […]. Cells were then added to the plate (45 μL/well at a concentration of 280,000 cells/mL). IL17A/A (Genscript #Z03228) or IL17A/F (R&D Systems) was added to the plate to a final concentration of 5 ng/mL and a final well volume of 50 μL. The cells, compound, and IL-17A/A or IL17A/F were then incubated for 20 hours before media was removed for SEAP analysis. The resulting inhibition curve was then analyzed using Dotmatics' integrated 4-parameter fit screening protocol to generate IC50 values.
(§3) Table 2 includes IC50 values for IL-17A/A and IL-17A/F inhibition of selected compounds; with compounds having a IC50 of A<100 nM; B 100-1000 nM; and C>1000 nM.

IL-17A/A = target: T2, IL-17A/A (Homo sapiens, UniProt Q16552); test: IL-17A/A HEK-Blue cell assay (SEAP reporter); assay type: cell-based; settings: HEK-Blue IL-17A reporter cells, IL17A/A 5 ng/mL, 20 hours, SEAP read at A630; read-out: HEK-Blue IL17AA (IC50 for IL-17A/A inhibition)
T2 construct: purchased Genscript Z03228
T2 sequence (Q16552 24-155): T1 sequence (Q16552 24-155)
Method: as §1, §2, §3

Row | IC50 (IL-17A/F) | IC50 (IL-17A/A) | SMILES
1 | > 1000 nM | < 100 nM | CCn1nccc1C(=O)N[C@H](c1cn2nc(CC3C[C@@H](C(F)(F)F)CNC3=O)cnc2n1)[C@H]1CC[C@H](C)CC1 (single isomer, unassigned) [Compound 1]
2 | > 1000 nM | 100 to 1000 nM | CCn1nccc1C(=O)N[C@H](c1cn2nc(CC3C[C@@H](C(F)(F)F)CNC3=O)cnc2n1)[C@H]1CC[C@H](C)CC1 (single isomer, unassigned) [Compound 2]
3 | > 1000 nM | < 100 nM | CCn1nccc1C(=O)N[C@H](c1cn2nc(CC3C[C@@H](C(F)(F)F)CNC3=O)cnc2n1)C1CCC(F)(F)CC1 (single isomer, unassigned) [Compound 4]
4 | > 1000 nM | 100 to 1000 nM | CCn1nccc1C(=O)N[C@H](c1cn2nc(CC3C[C@@H](C(F)(F)F)CNC3=O)cnc2n1)C1CCC(F)(F)CC1 (single isomer, unassigned) [Compound 5]
5 | > 1000 nM | 100 to 1000 nM | CCn1nccc1C(=O)N[C@H](c1cn2nc(C[C@H]3C[C@@H](C(F)(F)F)CNC3=O)cnc2n1)[C@@H]1CCCC(F)(F)C1 (single isomer, unassigned) [Compound 31]
6 | 100 to 1000 nM | < 100 nM | CCn1nccc1C(=O)N[C@H](c1cn2nc(CC3C[C@@H](C(F)(F)F)CNC3=O)c(N(C)C)nc2n1)C1CCC(F)(F)CC1 (single isomer, unassigned) [Compound 48]
7 | > 1000 nM | < 100 nM | CCn1nccc1C(=O)N[C@H](c1cn2nc(CC3C[C@@H](C(F)(F)F)CNC3=O)c(N(C)C)nc2n1)C1CCC(F)(F)CC1 (single isomer, unassigned) [Compound 49]
8 | > 1000 nM | 100 to 1000 nM | CCn1nccc1C(=O)N[C@H](c1cn2nc(CC3C[C@H](C(F)(F)F)CNC3=O)c(N(C)C)nc2n1)C1CCC(F)(F)CC1 (single isomer, unassigned) [Compound 51]
9 | 100 to 1000 nM | < 100 nM | CCn1nccc1C(=O)N[C@H](c1cn2nc(CC3C[C@H](C(F)(F)F)CNC3=O)c(N(C)C)nc2n1)C1CCC(F)(F)CC1 (single isomer, unassigned) [Compound 55]
10 | – | 100 to 1000 nM | CCn1nccc1C(=O)N[C@H](c1cn2nc(CC3C[C@H](C(F)(F)F)CNC3=O)cnc2n1)C1CCC(F)(F)CC1 (stereo partly drawn) [Compound 14, N—((S)-(4,4-difluorocyclohexyl)(2-(((5S)-2-oxo-5-(trifluoromethyl)piperidin-3-yl)methyl)imidazo[1,2-b][1,2,4]triazin-6-yl)methyl)-1-ethyl-1H-pyrazole-5-carboxamide]
11 | – | 100 to 1000 nM | CCn1nccc1C(=O)N[C@H](c1cn2nc(C[C@H]3C[C@H](C(F)(F)F)CNC3=O)cnc2n1)C1CCC(F)(F)CC1 [Compound 52]
12 | – | 100 to 1000 nM | CC(C)n1nccc1C(=O)N[C@H](c1cn2nc(C[C@@H]3C[C@@H](C(F)(F)F)CNC3=O)cnc2n1)C1CCC(F)(F)CC1 [Compound 202]

Continued, compound first:

Row | SMILES | IC50 (IL-17A/F) | IC50 (IL-17A/A)
13 | CCn1nccc1C(=O)N[C@H](c1cn2nc(CC3C[C@@H](C(F)(F)F)CNC3=O)c(N3CCOCC3)nc2n1)C1CCC(F)(F)CC1 (mixture of isomers) [Compound 19, N-((1S)-(4,4-difluorocyclohexyl)(3-morpholino-2-(((5R)-2-oxo-5-(trifluoromethyl)piperidin-3-yl)methyl)imidazo[1,2-b][1,2,4]triazin-6-yl)methyl)-1-ethyl-1H-pyrazole-5-carboxamide] | > 1000 nM | 100 to 1000 nM
14 | CCn1nccc1C(=O)N[C@H](c1cn2nc(CC3C[C@@H](C(F)(F)F)CNC3=O)c(N3CCOCC3)nc2n1)C1CCC(F)(F)CC1 (single isomer, unassigned) [Compound 17] | 100 to 1000 nM | < 100 nM
15 | CCn1nccc1C(=O)N[C@H](c1cn2nc(CC3C[C@@H](C(F)(F)F)CNC3=O)c(N3CCOCC3)nc2n1)C1CCC(F)(F)CC1 (single isomer, unassigned) [Compound 18] | > 1000 nM | < 100 nM
16 | O=C(N[C@H](c1cn2nc(CC3C[C@@H](C(F)(F)F)CNC3=O)c(N3CCOCC3)nc2n1)C1CCC(F)(F)CC1)c1nonc1C1CC1 (single isomer, unassigned) [Compound 20] | > 1000 nM | < 100 nM
17 | O=C(N[C@H](c1cn2nc(CC3C[C@@H](C(F)(F)F)CNC3=O)c(N3CCOCC3)nc2n1)C1CCC(F)(F)CC1)c1nonc1C1CC1 (single isomer, unassigned) [Compound 21] | > 1000 nM | < 100 nM
18 | CCn1nccc1C(=O)N[C@H](c1cn2nc(CC3C[C@@H](C(F)(F)F)CNC3=O)c(N3CCOCC3)nc2n1)[C@H]1CC[C@H](C)CC1 (single isomer, unassigned) [Compound 22] | 100 to 1000 nM | < 100 nM
19 | CCn1nccc1C(=O)N[C@H](c1cn2nc(CC3C[C@@H](C(F)(F)F)CNC3=O)c(N3CCOCC3)nc2n1)[C@H]1CC[C@H](C)CC1 (single isomer, unassigned) [Compound 23] | > 1000 nM | < 100 nM
20 | O=C(N[C@H](c1cn2nc(C[C@@H]3C[C@@H](C(F)(F)F)CNC3=O)cnc2n1)C1CCC(F)(F)CC1)c1nonc1C1CC1 (single isomer, unassigned) [Compound 33] | > 1000 nM | 100 to 1000 nM
21 | CCn1nccc1C(=O)N[C@H](c1cn2nc(CC3C[C@H](C(F)(F)F)CNC3=O)c(N3CCOCC3)nc2n1)C1CCC(F)(F)CC1 (single isomer, unassigned) [Compound 50] | > 1000 nM | 100 to 1000 nM
22 | CCn1nccc1C(=O)N[C@H](c1cn2nc(CC3C[C@H](C(F)(F)F)CNC3=O)c(N3CCOCC3)nc2n1)C1CCC(F)(F)CC1 (single isomer, unassigned) [Compound 54] | 100 to 1000 nM | < 100 nM
23 | CCn1nccc1C(=O)N[C@H](c1cn2nc(C[C@H]3C[C@@H](C(F)(F)F)CNC3=O)c(C3CCOC3)nc2n1)C1CCC(F)(F)CC1 (single isomer, unassigned) [Compound 61] | 100 to 1000 nM | < 100 nM
24 | CCn1nccc1C(=O)N[C@H](c1cn2nc(C[C@H]3C[C@@H](C(F)(F)F)CNC3=O)c(C3CCOC3)nc2n1)C1CCC(F)(F)CC1 (single isomer, unassigned) [Compound 62] | 100 to 1000 nM | < 100 nM
25 | CCn1nccc1C(=O)N[C@H](c1cn2nc(C[C@@H]3CC(F)(F)CNC3=O)cnc2n1)C1CCC(F)(F)CC1 (single isomer, unassigned) [Compound 63] | > 1000 nM | 100 to 1000 nM
26 | CCn1nccc1C(=O)N[C@H](c1cn2nc(C[C@H]3C[C@@H](C(F)(F)F)CNC3=O)c(C(C)(C)F)nc2n1)C1CCC(F)(F)CC1 [Compound 233, N—((S)-(4,4-difluorocyclohexyl)(3-(2-fluoropropan-2-yl)-2-(((3R,5R)-2-oxo-5-(trifluoromethyl)piperidin-3-yl)methyl)imidazo[1,2-b][1,2,4]triazin-6-yl)methyl)-1-ethyl-1H-pyrazole-5-carboxamide] | – | < 100 nM
27 | CC(F)(F)C(=O)N[C@H](c1cn2nc(C[C@H]3C[C@@H](C(F)(F)F)CNC3=O)c(C3CCOCC3)nc2n1)C1CCC(F)(F)CC1 [Compound 438, N—((S)-(4,4-difluorocyclohexyl)(2-(((3R,5R)-2-oxo-5-(trifluoromethyl)piperidin-3-yl)methyl)-3-(tetrahydro-2H-pyran-4-yl)imidazo[1,2-b][1,2,4]triazin-6-yl)methyl)-2,2-difluoropropanamide] | – | 100 to 1000 nM
